Here are results for 2 compounds from US20220249539A1, “BOLAAMPHIPHILIC COMPOUNDS, COMPOSITIONS AND USES THEREOF” (priority 2015, published 2022).

Data set [1] deals with GBM. To be noted: very little gets through the BBB and reaches the tumor; cited from earlier work.
The test system of data set [2] is patients' gliomas implanted in mice. Particulars: cited from earlier work.
A short description of data set [3]: Fluorescence in mouse cerebral cortex after i.v. injection of albumin-FITC. Particulars: FIGS. 5A, 5B. The data set is classed as in vivo. From the text:
In addition to the peptide leu-enkephalin, and the small molecules: CF, uranyl acetate, kyotorphin and sucrose, the inventors have also successfully encapsulated in these vesicles the proteins albumin and trypsinogen and the polysaccharide Dextran-FITC (MW 9000).

Regarding `CCc1c2c(nc3ccc(OC(=O)N4CCC(N5CCCCC5)CC4)cc13)-c1cc3c(c(=O)n1C2)COC(=O)[C@]3(O)CC` [CPT-11, (S)-4,11-diethyl-3,4,12,14-tetrahydro-4-hydroxy-3,14-dioxo1H-pyrano[3′,4′:6,7]-indolizino[1,2-b]quinolin-9-yl-[1,4′bipiperidine]-1′-carboxylate], the “outcome of attempts to treat GBM patients” value in data set [1] was “unsuccessful”. Besides, in data set [2] (out of 40 drugs tested), the “potency rank against patients' gliomas implanted in mice” value is “the most potent chemotherapeutic agent”. In addition, the “effectiveness against tumors tested” value in data set [2] (patients' gliomas implanted in mice) is recorded as “effective against every tumor tested”.

On to “un-encapsulated albumin-FITC: albumin-FITC (non-encapsulated)”, for which the “delivery of albumin-FITC to the brain (brain accumulation)” value in data set [3] is “little, if any, brain accumulation”.
